What was measured:
[1] = Drug concentration in liquid formulations by liquid chromatography / HPLC; assay type: physicochemical
Procedure: Table 8, shown below, summarizes the concentrations of the excipient, the co-solvents and the drug for four different liquid formulations in accordance with exemplary embodiments of the present invention.
In another exemplary embodiment, the liquid formulation of sirolimus comprises water and ethanol as co-solvents and Vitamin E TPGS as the excipient. The liquid formulation was created utilizing the following process. Two hundred milligrams of sirolimus and two grams of ethanol were added to a pre-weighed twenty milliliter scintillation vial. The vial was vortexed and sonicated until the sirolimus was completely dissolved. Approximately six hundred milligrams of Vitamin E TPGS was then added to the solution of ethanol and sirolimus. The vial was vortexed again until a clear yellowish solution was obtained. Nitrogen gas was then used to reduce the amount of ethanol in the vial to approximately two hundred twenty-nine milligrams. In a separate vial, three hundred milligrams of Vitamin E TPGS was dissolved in eleven milliliters of purified water while undergoing vortexing. The Vitamin E TPGS and water solution was then added to the first vial containing the sirolimus, Vitamin E TPGS and ethanol. The first vial was then vortexed vigorously and continuously for three minutes. […] The foam gradually disappeared after sitting at room temperature. […]

[2] = test system: human smooth muscle cells; experiment: Cladribine Example: PDGF-stimulated cell proliferation, smooth muscle cells; assay type: cell-based; conditions: from the IC50 values
Procedure: To assess the ability of cladribine to prevent cell proliferation, human smooth muscle or endothelial cells (Clonetics, Walkersville, Md.) were seeded at a density of 2000 cells/cm^2 (approximately 3600 cells/well) into each well of 12-well plates and cultured with 1.5 ml of growth medium containing five percent fetal calf serum (FCS). After twenty-four hours, the growth medium was changed and fresh medium containing 10 ng/ml platelet-derived growth factor AB (PDGF AB; LIFE Technologies), as well as various concentrations of cladribine (0.001-10,000 nM) were added with triplicate wells. Medium was replaced with fresh cladribine-containing medium after three days. On day six, cells were detached by trypsinization to yield a cell suspension, lightly centrifuged to pellet and then counted manually using a Neubauer hemocytometer system. Cell viability was assessed by trypan blue exclusion.

[3] = test system: human coronary artery smooth muscle cells; experiment: Anti-proliferative activity in non-synchronized cultured cells stimulated with two percent fetal bovine serum; assay type: cell-based; conditions: for effect on the anti-proliferative activity of rapamycin when added: non-synchronized cells, added to cells treated with rapamycin
Source text: The multiple curves represent various concentrations of mycophenolic acid ranging from zero to one thousand nanomolar concentrations. […] This potentiation observed in cultured coronary artery smooth muscle cells preferably translates to an enhancement in anti-restenotic efficacy following vascular injury and a reduction in the required amount of either agent to achieve the desired anti-restenotic effect.
FIG. 58 illustrates, in graphical format, the anti-proliferative activity of cladribine in non-synchronized cultured human coronary artery smooth muscle cells stimulated with two percent fetal bovine serum.
The multiple curves represent various concentrations of cladribine ranging from zero to nine hundred nanomolar concentrations. […] As illustrated, the percent inhibition increases substantially as the dose of cladribine increases.

[4] = test system: cell viability; experiment: Cell viability assay; assay type: cell-based
Source text: (§1) The multiple curves represent various concentrations of topotecan ranging from zero to three hundred nanomolar concentrations.
(§2) The multiple curves represent various concentrations of etoposide ranging from zero to eight hundred nanomolar concentrations.

[5] = test system: human coronary artery smooth muscle cells; experiment: Anti-proliferative activity in synchronized cultured cells stimulated with two percent fetal bovine serum; assay type: cell-based; conditions: for effect on the anti-proliferative activity of rapamycin when added: added to cells treated with rapamycin
Source text: as §1, §2
The multiple curves represent various concentrations of Panzem® ranging from zero to 100 micromolar concentrations.

[6] = test system: human coronary artery smooth muscle cell; experiment: MTS cytotoxicity assay; assay type: cell-based; conditions: concentrations up to 30,000.00 nanomolar, FIG. 69
Source text: Typically, a control is utilized to determine baseline toxicity.

[7] = test system: tumor cell lines; conditions: cited from earlier work
[8] = test system: human coronary artery smooth muscle cell; experiment: In vitro cell culture study of coronary artery smooth muscle cell proliferation; assay type: cell-based
Source text: FIG. 51 is a graph of the inhibition of coronary artery smooth muscle cells by trichostatin A in a cell culture study.

CO[C@H]1C[C@@H]2CC[C@@H](C)[C@@](O)(O2)C(=O)C(=O)N2CCCC[C@H]2C(=O)O[C@H]([C@H](C)C[C@@H]2CC[C@@H](OC(=O)C(C)(CO)CO)[C@H](OC)C2)CC(=O)[C@H](C)/C=C(\C)[C@@H](O)[C@@H](OC)C(=O)[C@H](C)C[C@H](C)/C=C/C=C/C=C/1C [CCI-779]
concentration in the final solution (HPLC assay) ([1]; ethanol (less than two percent), Vitamin E TPGS and water): 15000 µg/mL

Nc1nc(Cl)nc2c1ncn2[C@H]1C[C@H](O)[C@@H](CO)O1 [Cladribine, 2-chlorodeoxyadenosine]
potency as inhibitor of smooth muscle cells relative to endothelial cells [2]: approximately twice | effect on the anti-proliferative activity of rapamycin when added [3]: increases the percent inhibition of rapamycin alone | inhibition of human coronary artery smooth muscle cell proliferation ([3]; non-synchronized, two percent fetal bovine serum, FIG. 58): completely inhibits

COc1cc([C@@H]2c3cc4c(cc3[C@@H](O[C@@H]3O[C@@H]5CO[C@@H](C)O[C@H]5[C@H](O)[C@H]3O)[C@H]3COC(=O)[C@H]23)OCO4)cc(OC)c1O [Etoposide, etoposide]
cytotoxicity ([4]; concentrations up to ten micromolar): non-cytotoxic | effect on the anti-proliferative activity of rapamycin when added [5]: increases the percent inhibition of rapamycin alone

COc1cc2c(cc1O)CC[C@@H]1[C@@H]2CC[C@]2(C)[C@@H](O)CC[C@@H]12 [Panzem®, 2-methoxyestradiol]
inhibition of human coronary artery smooth muscle cell proliferation in vitro ([5]; FIG. 66): extremely effective inhibitor | effect on the anti-proliferative activity of rapamycin when added [5]: increases the percent of inhibition of rapamycin alone | cell survival (MTS assay) [6]: do not reduce human coronary artery smooth muscle cell survival

CO[C@H]1C[C@@H]2CC[C@@H](C)[C@@](O)(O2)C(=O)C(=O)N2CCCC[C@H]2C(=O)O[C@H]([C@H](C)C[C@@H]2CC[C@@H](O)[C@H](OC)C2)CC(=O)[C@H](C)/C=C(\C)[C@@H](O)[C@@H](OC)C(=O)[C@H](C)C[C@H](C)/C=C/C=C/C=C/1C [Rapamycin, rapamycin]
concentration relative to the solubility of sirolimus in water ([1]; 4 mg/ml formulation with PEG 200, ethanol and water): four hundred to about one thousand

CC[C@@]1(O)C(=O)OCc2c1cc1n(c2=O)Cc2cc3c(CN(C)C)c(O)ccc3nc2-1 [Topotecan, topotecan]
cytotoxicity ([4]; concentrations up to one micromolar): non-cytotoxic | effect on the anti-proliferative activity of rapamycin when added [5]: increases the percent inhibition of rapamycin alone

COc1c(C)c2c(c(O)c1C/C=C(\C)CCC(=O)O)C(=O)OC2 [mycophenolic acid]
effect on the anti-proliferative activity of rapamycin when added [3]: potentiates the anti-proliferative activity of rapamycin

CC(/C=C/C(=O)NO)=C\[C@@H](C)C(=O)c1ccc(N(C)C)cc1 [trichostatin A]
anti-proliferative IC50 [7]: low nM range | IC50 ([8]; human coronary artery smooth muscle cell proliferation, read-out: anti-proliferative IC50): ~6 nM | inhibition of human coronary artery smooth muscle cell proliferation ([8]; in vitro cell culture): completely inhibit

Source: patent US8747881B2, “Intraluminal medical devices in combination with therapeutic agents” (Cordis Corporation, priority 2003, dated 2014)
